Laboratory results taken from patent USRE44971E1, “Method for selection of transformed cells” (priority 2006, dated 2014).

Columns and labels:
[1] = test system: non-transgenic soybean plants; assay: Greenhouse post-V3 spray of auxin-like herbicides, visual injury, non-transgenic line; format: in vivo
Procedure: (§1) An analysis was carried out to determine whether soybean plants having DMO-encoding polynucleotide could deactivate other auxin-like herbicides in addition to dicamba. This was carried out by applying various concentrations of commercially available formulations of other auxin-like herbicides such as 2,4-D (Helena, Collierville, Tenn.), MCPA (Agriliance, St. Paul, Minn.), triclopyr (GARLON 3A; Dow Elanco, Indianapolis, Ind.), clopyralid (STINGER; Dow Elanco, Indianapolis, Ind.), picloram (TORDON 22K; Dow Elanco, Indianapolis, Ind.), or Banvel or Clarity (BASF, Raleigh, N.C.) to DMO containing plant tissues or plants.
(§2) Transgenic soybean plants were obtained by Agrobacterium-mediated transformation of soybean explants with a DMO-encoding polynucleotide as described above for the events designated Events 1-4. A non-transgenic line was used as a control. Non-transgenic and transgenic soybean seeds were planted into 3,5-inch square plastic pots containing Redi-earth™ (Scotts-Sierra Horticultural Products Co., Marysville, Ohio). The pots were placed on capillary matting in 35 inch×60 inch fiberglass watering trays for overhead and/or sub-irrigation for the duration of the test period so as to maintain optimum soil moisture for plant growth. The pots were fertilized with Osmocote (14-14-14 slow release; Scotts-Sierra Horticultural Products Co., Marysville, Ohio) at the rate of 100 gm/cu.ft. to sustain plant growth for the duration of greenhouse trials. The plants were grown in greenhouses at 27°/21° C. day/night temperature, with relative humidity between 25%-75% to simulate warm season growing conditions of late spring. A 14 h minimum photoperiod was provided with supplemental light at about 600 μE as needed.
(§3) All herbicide applications were made with the track sprayer using a Teejet 9501E flat fan nozzle (Spraying Systems Co, Wheaton, Ill.) with air pressure set at a minimum of 24 psi (165 kpa). The spray nozzle was kept at a height of about 16 inches above the top of plant material for spraying. The spray volume was 10 gallons per acre or 93 liters per hectare. Applications were made when plants had reached V-3 stage.
(§4) All treated plants in greenhouse trials were visually assessed at about 4, 14, 18, and 21 days after treatment (DAT) for injury on a scale of 0 to 100 percent relative to untreated control plants, with zero representing “no” injury and 100% representing “complete” injury or death. Data were collected using a palm top computer and analyzed using standard statistical methods.

[2] = test system: transgenic soybean plants with DMO-encoding polynucleotide, Event 1; assay: Greenhouse post-V3 spray of auxin-like herbicides, visual injury, transgenic Event 1; format: in vivo
Procedure: as §1, §2, §3, §4

[3] = test system: transgenic soybean plants with DMO-encoding polynucleotide, Event 3; assay: Greenhouse post-V3 spray of auxin-like herbicides, visual injury, transgenic Event 3; format: in vivo
Procedure: as §1, §2, §3, §4

[4] = test system: transgenic soybean plants with DMO-encoding polynucleotide, Event 2; assay: Greenhouse post-V3 spray of auxin-like herbicides, visual injury, transgenic Event 2; format: in vivo
Procedure: as §1, §2, §3, §4

[5] = test system: transgenic soybean plants having DMO-encoding polynucleotide; assay: Greenhouse injury trial, overall statements for transgenic soybean; format: in vivo; conditions: for assessment of application rate: 280 g ae/ha, transgenic soybean; for tolerance of transgenic soybean relative to the non-transgenic line: greenhouse trial, post-V3 application
Procedure: as §1, §2, §3, §4

[6] = test system: transgenic soybean plants with DMO-encoding polynucleotide, Event 4; assay: Greenhouse post-V3 spray of auxin-like herbicides, visual injury, transgenic Event 4; format: in vivo
Procedure: as §1, §2, §3, §4

[7] = test system: soybean explants inoculated with Agrobacterium harboring pMON73691 (DMO and GFP genes); assay: Selection of pMON73691-inoculated soybean explants with 2,4-D or dicamba in liquid medium, GFP+ buds; format: cell-based; conditions: for # Explants w/GFP + buds/young shoots at 48DAI: 375 explants inoculated, pMON73691
Procedure: Freshly isolated soybean explants (mature embryo axes without cotyledons) were inoculated with Agrobacterium strain ABI harboring pMON73691 (containing DMO and GFP genes). After 3-d co-culture with Agrobacterium at 23° C. and a photoperiod of 16-h light and 8-h dark, the explants were cultured in liquid delay medium which contained modified woody plant medium supplemented with 5 mg/l BAP, 200 mg/l carbenicillin, 200 mg/l cefotaxime and 100 mg/l ticarcillin. The explants were in the delay medium for 4 days. They were then transferred to liquid selection medium in PLANTCONs. The selection medium was the same as the delay medium except of addition of various levels of 2,4-D (0.01, 0.1, 1.0 or 2.0 mg/L) or 0.01 mg/L dicamba as shown in Table 9 below. Each PLANTCON contained 60 ml of the selection medium and one piece of foam sponge with 5 slits. Twenty-five explants were evenly inserted into the slits. The cultures were maintained at 28° C. and a photoperiod of 16-h light and 8-h dark, and were examined periodically under a […] equipped for detecting GFP expressing tissues.

Compound: O=C(O)c1nc(Cl)ccc1Cl [Clopyralid, 3,6-dichloro-2-pyridinecarboxylic acid]
- % injury relative to un-treated controls ([1]; 280 g ae/ha, 14 DAT): 99.3%
- % injury relative to un-treated controls ([1]; 561 g ae/ha, 14 DAT): 100.0%
- % injury relative to un-treated controls ([1]; 1120 g ae/ha, 14 DAT): 100.0%
- % injury relative to un-treated controls ([2]; 280 g ae/ha, 14 DAT): 99.2%
- % injury relative to un-treated controls ([2]; 561 g ae/ha, 14 DAT): 100.0%
- % injury relative to un-treated controls ([2]; 1120 g ae/ha, 14 DAT): 100.0%
- % injury relative to un-treated controls ([3]; 280 g ae/ha, 14 DAT): 99.3%
- % injury relative to un-treated controls ([3]; 561 g ae/ha, 14 DAT): 100.0%
- % injury relative to un-treated controls ([3]; 1120 g ae/ha, 14 DAT): 100.0%
- % injury relative to un-treated controls ([4]; 280 g ae/ha, 14 DAT): 98.2%
- % injury relative to un-treated controls ([4]; 561 g ae/ha, 14 DAT): 99.7%
- % injury relative to un-treated controls ([4]; 1120 g ae/ha, 14 DAT): 100.0%
- assessment of application rate [5]: too stringent
- % injury relative to un-treated controls ([6]; 280 g ae/ha, 14 DAT): 99.7%
- % injury relative to un-treated controls ([6]; 561 g ae/ha, 14 DAT): 100.0%
- % injury relative to un-treated controls ([6]; 1120 g ae/ha, 14 DAT): 100.0%

Compound: Nc1c(Cl)c(Cl)nc(C(=O)O)c1Cl [Picloram, 4-amino-3,5,6-trichloro-2-pyridinecarboxylic acid]
- % injury relative to un-treated controls ([1]; 280 g ae/ha, 14 DAT): 99.3%
- % injury relative to un-treated controls ([1]; 561 g ae/ha, 14 DAT): 100.0%
- % injury relative to un-treated controls ([1]; 1120 g ae/ha, 14 DAT): 100.0%
- % injury relative to un-treated controls ([2]; 280 g ae/ha, 14 DAT): 99.7%
- % injury relative to un-treated controls ([2]; 561 g ae/ha, 14 DAT): 100.0%
- % injury relative to un-treated controls ([2]; 1120 g ae/ha, 14 DAT): 100.0%
- % injury relative to un-treated controls ([3]; 280 g ae/ha, 14 DAT): 99.3%
- % injury relative to un-treated controls ([3]; 561 g ae/ha, 14 DAT): 99.7%
- % injury relative to un-treated controls ([3]; 1120 g ae/ha, 14 DAT): 100.0%
- % injury relative to un-treated controls ([4]; 280 g ae/ha, 14 DAT): 99.3%
- % injury relative to un-treated controls ([4]; 561 g ae/ha, 14 DAT): 100.0%
- % injury relative to un-treated controls ([4]; 1120 g ae/ha, 14 DAT): 100.0%
- assessment of application rate [5]: too stringent
- % injury relative to un-treated controls ([6]; 280 g ae/ha, 14 DAT): 99.3%
- % injury relative to un-treated controls ([6]; 561 g ae/ha, 14 DAT): 100.0%
- % injury relative to un-treated controls ([6]; 1120 g ae/ha, 14 DAT): 100.0%

Compound: Cc1cc(Cl)ccc1OCC(=O)O [MCPA, (4-chloro-2-methylphenoxy)acetic acid]
- % injury relative to un-treated controls ([1]; 280 g ae/ha, 21 DAT): 93.0%
- % injury relative to un-treated controls ([1]; 561 g ae/ha, 21 DAT): 98.3%
- % injury relative to un-treated controls ([1]; 1120 g ae/ha, 21 DAT): 100.0%
- % injury relative to un-treated controls ([2]; 280 g ae/ha, 21 DAT): 72.5%
- % injury relative to un-treated controls ([2]; 561 g ae/ha, 21 DAT): 99.3%
- % injury relative to un-treated controls ([2]; 1120 g ae/ha, 21 DAT): 100.0%
- % injury relative to un-treated controls ([3]; 280 g ae/ha, 21 DAT): 55.0%
- % injury relative to un-treated controls ([3]; 561 g ae/ha, 21 DAT): 95.8%
- % injury relative to un-treated controls ([3]; 1120 g ae/ha, 21 DAT): 100.0%
- % injury relative to un-treated controls ([4]; 280 g ae/ha, 21 DAT): 55.0%
- % injury relative to un-treated controls ([4]; 561 g ae/ha, 21 DAT): 95.0%
- % injury relative to un-treated controls ([4]; 1120 g ae/ha, 21 DAT): 99.7%
- tolerance of transgenic soybean relative to the non-transgenic line [5]: tolerance
- % injury relative to un-treated controls ([6]; 280 g ae/ha, 21 DAT): 88.3%
- % injury relative to un-treated controls ([6]; 561 g ae/ha, 21 DAT): 98.8%
- % injury relative to un-treated controls ([6]; 1120 g ae/ha, 21 DAT): 100.0%

Compound: (2,4,5-trichlorophenoxy)acetic acid [Triclopyr]
- % injury relative to un-treated controls ([1]; 280 g ae/ha, 14 DAT): 86.7%
- % injury relative to un-treated controls ([1]; 561 g ae/ha, 14 DAT): 97.3%
- % injury relative to un-treated controls ([1]; 1120 g ae/ha, 14 DAT): 98.7%
- % injury relative to un-treated controls ([2]; 280 g ae/ha, 14 DAT): 88.3%
- % injury relative to un-treated controls ([2]; 561 g ae/ha, 14 DAT): 95.7%
- % injury relative to un-treated controls ([2]; 1120 g ae/ha, 14 DAT): 99.3%
- % injury relative to un-treated controls ([3]; 280 g ae/ha, 14 DAT): 86.7%
- % injury relative to un-treated controls ([3]; 561 g ae/ha, 14 DAT): 94.0%
- % injury relative to un-treated controls ([3]; 1120 g ae/ha, 14 DAT): 96.3%
- % injury relative to un-treated controls ([4]; 280 g ae/ha, 14 DAT): 86.7%
- % injury relative to un-treated controls ([4]; 561 g ae/ha, 14 DAT): 98.7%
- % injury relative to un-treated controls ([4]; 1120 g ae/ha, 14 DAT): 99.3%
- assessment of application rate [5]: too stringent
- % injury relative to un-treated controls ([6]; 280 g ae/ha, 14 DAT): 90.8%
- % injury relative to un-treated controls ([6]; 561 g ae/ha, 14 DAT): 98.0%
- % injury relative to un-treated controls ([6]; 1120 g ae/ha, 14 DAT): 99.2%

Compound: O=C(O)COc1ccc(Cl)cc1Cl [2,4-D, (2,4-dichlorophenoxy)acetic acid]
- % injury relative to un-treated controls ([1]; 280 g ae/ha, 21 DAT): 86.8%
- % injury relative to un-treated controls ([1]; 561 g ae/ha, 21 DAT): 100.0%
- % injury relative to un-treated controls ([1]; 1120 g ae/ha, 21 DAT): 100.0%
- % injury relative to un-treated controls ([2]; 280 g ae/ha, 21 DAT): 58.3%
- % injury relative to un-treated controls ([2]; 561 g ae/ha, 21 DAT): 75.0%
- % injury relative to un-treated controls ([2]; 1120 g ae/ha, 21 DAT): 100.0%
- % injury relative to un-treated controls ([3]; 280 g ae/ha, 21 DAT): 40.0%
- % injury relative to un-treated controls ([3]; 561 g ae/ha, 21 DAT): 85.0%
- % injury relative to un-treated controls ([3]; 1120 g ae/ha, 21 DAT): 100.0%
- % injury relative to un-treated controls ([4]; 280 g ae/ha, 21 DAT): 64.2%
- % injury relative to un-treated controls ([4]; 561 g ae/ha, 21 DAT): 94.7%
- % injury relative to un-treated controls ([4]; 1120 g ae/ha, 21 DAT): 100.0%
- tolerance of transgenic soybean relative to the non-transgenic line [5]: tolerance
- explant response observed ([7]; 0.01 or 0.1 mg/L in selection medium): extensive shoot growth
- explant response observed ([7]; 1 or 2 mg/L in selection medium): Extensive callus development
- # Explants w/GFP + buds/young shoots at 48DAI ([7]; selective agent 0.01 mg/L): 33
- # Explants w/GFP + buds/young shoots at 48DAI ([7]; selective agent 0.1 mg/L): 19
- # Explants w/GFP + buds/young shoots at 48DAI ([7]; selective agent 1 mg/L): 4
- # Explants w/GFP + buds/young shoots at 48DAI ([7]; selective agent 2 mg/L): 0
- % injury relative to un-treated controls ([6]; 280 g ae/ha, 21 DAT): 45.8%
- % injury relative to un-treated controls ([6]; 561 g ae/ha, 21 DAT): 84.2%
- % injury relative to un-treated controls ([6]; 1120 g ae/ha, 21 DAT): 100.0%
